{
  "source": "patent US8426358B2",
  "about": "“Methods for treating atherosclerosis” (Amgen Inc., priority 2006, dated 2013)",
  "key": {"LCAT": {"system": "LCAT", "experiment": "Plasma LCAT activity assay in LCAT-deficient (lcat -/-) plasma samples", "type": "biochemical", "conditions": "lcat -/- mutant mouse plasma, in the presence or absence of compound", "protocol": "(§1) Activity of the modified LCAT of the invention and activities of compounds of the invention were determined by measuring change of the rate of conversion of ^3H-labeled cholesterol to cholesteryl ester (CE). In the plasma LCAT activity assay, human plasma samples were equilibrated with a trace amount of radiolabeled cholesterol at 4° C. and the rate of cholesterol esterification was measured by TLC analysis after incubation at 37° C. (Dobiasova, supra). EC50 represents a compound concentration achieving 50% of maximal activation of LCAT-mediated cholesterol esterification. Results presented in FIG. 2(A) confirm activity and specificity of the compounds of the invention on LCAT enzyme. This experiment studied the effect of Compound A in LCAT-deficient plasma samples obtained from lcat mutant mice. Ng et al. (1997) J. Biol. Chem. 272:1 5777-81."}, "LCAT mutant H377A": {"target": "T1, LCAT mutant H377A (Homo sapiens, UniProt P04180, H401A)", "T1 construct": "full-length human LCAT cDNA was isolated from normal human liver cDNA library; FLAG (C); His (C); made in house; host or cells: CHO cells, secreted into serum-free medium", "T1 sequence (P04180 25-440 H401A)": "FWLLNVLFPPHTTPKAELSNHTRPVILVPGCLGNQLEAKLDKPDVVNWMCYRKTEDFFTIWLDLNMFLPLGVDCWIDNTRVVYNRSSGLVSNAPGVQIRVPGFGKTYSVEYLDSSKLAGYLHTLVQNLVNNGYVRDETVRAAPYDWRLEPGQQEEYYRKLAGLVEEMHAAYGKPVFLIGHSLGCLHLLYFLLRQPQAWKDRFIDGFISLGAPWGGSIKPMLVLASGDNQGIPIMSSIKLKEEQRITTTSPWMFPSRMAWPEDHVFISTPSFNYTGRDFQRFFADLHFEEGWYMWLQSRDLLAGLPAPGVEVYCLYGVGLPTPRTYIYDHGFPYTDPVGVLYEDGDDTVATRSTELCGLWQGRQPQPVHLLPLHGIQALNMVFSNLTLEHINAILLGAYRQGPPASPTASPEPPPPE", "experiment": "Activity of loss-of-function LCAT mutant H377A with or without compound", "type": "biochemical", "conditions": "nonfunctional enzyme", "excerpt": "(§2) For measuring compound activity using apoAI-liposome assay format, full-length human LCAT cDNA was isolated from normal human liver cDNA library (BioChain, Hayward, Calif.) with standard protocol and cloned into a pCMV-Flag vector (See Example 18). Recombinant LCAT was expressed in CHO cells and the enzyme secreted from stably transfected cells was harvested in serum-free culture medium. Recombinant LCAT identity was confirmed with anti-human LCAT and anti-Flag antibodies. The activity of recombinant LCAT enzyme was determined using apoAI-liposome substrates prepared by the standard cholate-dialysis procedure (Chen et al. (1982) J. Lipid Res. 23: 680-691. The initial mixture contained egg PC/^3H-unesterfied cholesterol/human apoAI (molar ratio of 250:12.5:0.8). After dialysis the proteoliposomes were incorporated with recombinant LCAT protein. LCAT activity was determined by measuring the conversion of radiolabeled cholesterol to cholesteryl ester and expressed in nmol CE/mL per hour.\n(§3) Results summarized in FIG. 2(B) illustrate the mechanism of action of compounds of the invention on LCAT enzyme. Two loss-of-function LCAT mutants, H377A and S181A were generated, in which the critical catalytic triad of the enzyme was destroyed as described in Francone et al. (1991) Biochemistry 30: 10074-77; Peelman et al. (1998) Protein Sci. 7: 587-599; and Peelman et al. (2000) Curr. Opin. Lipidol. […]"}, "LCAT mutant S181A": {"target": "T2, LCAT mutant S181A (Homo sapiens, UniProt P04180, S205A)", "T2 construct": "full-length human LCAT cDNA was isolated from normal human liver cDNA library; FLAG (C); His (C); made in house; host or cells: CHO cells, secreted into serum-free medium", "T2 sequence (P04180 25-440 S205A)": "T1 sequence (P04180 25-440 H401A) with S181A, A377H", "experiment": "Activity of loss-of-function LCAT mutant S181A with or without compound", "type": "biochemical", "conditions": "nonfunctional enzyme", "excerpt": "as §2, §3"}, "LCAT C184A mutant": {"target": "T3, LCAT C184A mutant (Homo sapiens, UniProt P04180, C208A)", "T3 construct": "full-length human LCAT cDNA was isolated from normal human liver cDNA library; FLAG (C); His (C); made in house; host or cells: CHO cells, secreted into serum-free medium", "T3 sequence (P04180 25-440 C208A)": "T1 sequence (P04180 25-440 H401A) with C184A, A377H", "experiment": "Activation of recombinant LCAT C184A mutant", "type": "biochemical", "conditions": "recombinant protein", "excerpt": "as §2, §3"}, "LCAT C31A mutant": {"target": "T4, LCAT C31A mutant (Homo sapiens, UniProt P04180, C55A)", "T4 construct": "full-length human LCAT cDNA was isolated from normal human liver cDNA library; FLAG (C); His (C); made in house; host or cells: CHO cells, secreted into serum-free medium", "T4 sequence (P04180 25-440 C55A)": "T1 sequence (P04180 25-440 H401A) with C31A, A377H", "experiment": "Activation of recombinant LCAT C31A mutant", "type": "biochemical", "conditions": "recombinant protein", "excerpt": "as §2, §3"}, "LCAT enzyme": {"target": "T5, LCAT enzyme (Mus musculus, UniProt P16301)", "T5 construct": "from tissue; host or cells: plasma of BALB/c mice dosed IP", "T5 sequence (P16301 25-438)": "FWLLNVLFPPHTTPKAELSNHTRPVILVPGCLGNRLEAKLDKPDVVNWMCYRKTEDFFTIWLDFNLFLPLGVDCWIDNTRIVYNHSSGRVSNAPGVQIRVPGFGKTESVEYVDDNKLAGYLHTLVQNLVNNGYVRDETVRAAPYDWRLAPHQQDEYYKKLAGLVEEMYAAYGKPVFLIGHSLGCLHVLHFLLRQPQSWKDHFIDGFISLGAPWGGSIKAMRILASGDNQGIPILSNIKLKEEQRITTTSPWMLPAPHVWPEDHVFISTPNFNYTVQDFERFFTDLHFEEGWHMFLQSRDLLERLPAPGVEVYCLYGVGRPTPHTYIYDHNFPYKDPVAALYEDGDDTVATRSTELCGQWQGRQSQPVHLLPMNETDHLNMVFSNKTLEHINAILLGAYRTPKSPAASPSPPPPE", "experiment": "Plasma LCAT activity after IP dosing of BALB/c mice", "type": "in vivo", "conditions": "male, DEPG vehicle, FIG. 3", "protocol": "as §1, with “esterification.” for “esterification. Results presented in FIG. 2(A) confirm activity and specificity of the compounds of the invention on LCAT enzyme. This experiment studied the effect of Compound A in LCAT-deficient plasma samples obtained from lcat mutant mice. Ng et al. (1997) J. Biol. Chem. 272:1 5777-81.”\n(§4) Rodents used for assessing the in vivo effects of the compounds of the invention include BALB/c mice, CD1 mice, and Syrian hamsters of wild type fed with normal chew. These animals were treated with either vehicle or Compound A (3-(5-ethylthio)-1,3,4-thiadiazol-2-ylthio)pyrazine-2-carbonitrile) by IP injection. At time points (see Figures) after compound administration, blood samples were collected, plasma was immediately separated, and plasma levels of lipids, lipoprotein and LCAT activity were determined.\nBriefly, BALB/c mice (male, 7 weeks old) were treated with either vehicle or Compound A by intra-peritoneal (IP) in the indicated doses. Animals were fed normal chow diet. […]"}, "[1]": {"experiment": "Plasma HDL cholesterol in CD1 mice after IP dosing", "type": "in vivo", "conditions": "IP 20 mg/kg, one dose per day, 4 days, FIG. 4", "protocol": "as §4\nCD1 male three month old mice were treated with either vehicle (control) or with Compound A by IP injection (20 mg/kg, one dose per day, 4 days, n=8). Plasma samples were collected and HDL cholesterol concentrations were determined standard reagents and assay protocol using clinical analyzer (Infinity)."}, "[2]": {"experiment": "Plasma TC, HDL and LpB cholesterol in Syrian hamsters after IP dosing", "type": "in vivo", "conditions": "IP 20 mg/kg, one dose per day, 4 days, FIG. 6", "protocol": "as §4\nHamsters (Syrian, male, 12 weeks old, n=6 per group) were treated with either vehicle (control) or Compound A via IP administration (20 mg/kg, one dose per day, 4 days). Plasma samples were collected and concentrations of total cholesterol (TC), panel B, and HDL cholesterol (panel A) were measured. LpB cholesterol contents were obtained by subtracting HDL from TC (panel C)."}, "[3]": {"experiment": "FPLC elution profiles of pooled hamster plasma (cholesterol, triglyceride)", "type": "in vivo", "conditions": "hamsters, IP 20 mg/kg/day, 4 days, FIG. 7", "protocol": "Hamsters (n=6) were treated with either vehicle (control), or Compound A via IP administration (20 mg/kg/day, 4 days). Plasma samples were pooled within each treatment group, and separated by FPLC using two serially connected Superose 6 columns (Pharmacia Biotech Inc.). Cholesterol (panel A) and triglyceride (panel B) levels were determined in 0.5 ml fractions."}, "[4]": {"experiment": "HDL particle size profiles by Gradient Gel Electrophoresis (GGE) of pooled hamster plasma", "type": "in vivo", "conditions": "hamsters, 20 mg/kg/day, 4 days", "protocol": "Hamsters were treated with either vehicle or Compound A as described above (20 mg/kg/day, 4 days, n=6). Plasma samples were collected and pooled for each group. An aliquot of pooled plasma was analyzed using GGE as described in Blanche et al. (1981) BBA 665: 408-419."}},
  "note": "Substitutions are numbered along the chain they refer to.",
  "data": [
    {"smiles": "CCSc1nnc(Sc2nccnc2C#N)s1", "note": "[Compound A]", "values": [
      {"measurement": "LCAT activity in LCAT-deficient plasma", "setting": "LCAT", "result": "No LCAT activity was detected"},
      {"measurement": "LCAT activity of H377A mutant", "setting": "LCAT mutant H377A", "result": "No activity was observed"},
      {"measurement": "LCAT activity of S181A mutant", "setting": "LCAT mutant S181A", "result": "No activity was observed"},
      {"measurement": "Response of C184A mutant to compound (LCAT activation)", "setting": "LCAT C184A mutant", "result": "able to respond to the treatment in a dose dependent manner comparable to that of the wild type enzyme"},
      {"measurement": "Response of C31A mutant to compound (LCAT activation)", "setting": "LCAT C31A mutant", "result": "failed to be activated"},
      {"measurement": "Plasma LCAT enzyme activity", "setting": "LCAT enzyme", "result": "increase LCAT enzyme activity in a dose dependent manner"},
      {"measurement": "HDL cholesterol levels", "setting": "[1]", "result": "increases HDL cholesterol levels"},
      {"measurement": "HDL levels", "setting": "[2]", "result": "increases HDL levels"},
      {"measurement": "apoB-containing lipoprotein (LpB cholesterol = TC minus HDL)", "setting": "[2]", "result": "decreases apoB-containing lipoprotein"},
      {"measurement": "HDL particle size (FPLC)", "setting": "[3]", "result": "increases HDL particle size"},
      {"measurement": "HDL-Ch levels (FPLC)", "setting": "[3]", "result": "increases HDL-Ch levels"},
      {"measurement": "TG levels in the VLDL fraction (FPLC)", "setting": "[3]", "result": "decrease TG levels in the VLDL fraction"},
      {"measurement": "HDL particle size (GGE)", "setting": "[4]", "result": "increase of HDL particle size"},
      {"measurement": "HDL particle size profile, HDL subclass 2a", "setting": "[4]; GGE", "result": 39},
      {"measurement": "HDL particle size profile, HDL subclass 2b", "setting": "[4]; GGE", "result": 56},
      {"measurement": "HDL particle size profile, HDL subclass 3a", "setting": "[4]; GGE", "result": 3},
      {"measurement": "HDL particle size profile, HDL subclass 3b", "setting": "[4]; GGE", "result": 1},
      {"measurement": "HDL particle size profile, HDL subclass 3c", "setting": "[4]; GGE", "result": 1}
    ]}
  ]
}
